# Data reported in patent US5561149A, “Use of certain imidazol carbazols in treating stress-related manic-depressive disorders” (priority 1986, dated 1996).
# Where two headings read alike, the source gives them in different places.
# Key:
# [1] = test system: male OF-1 mice (social interactions and feeding); assay: Competitive feeding, Study C; format: in vivo, mouse
# Description: In this test 8 pairs of male OF-1 mice deprived of food for 6 hours are forced to compete over 6 minutes for a single food pellet. […]
# [2] = test system: mice (approach-oriented behaviour); assay: Approach-oriented behaviour in mice in stress-situations; format: in vivo, mouse; settings: for approach-oriented social behaviours: food deprived mice under white light; for effect on promoting social interaction under stress related conditions: mouse, in vivo
# Description: Trials have been carried out on the effects of the compounds of the invention on approach-oriented behaviour in mice. The compounds increase approach-oriented behaviour in stress-situations normally inhibitory to social responses. Thus situations involving unfamiliar surroundings, contact with foreign aggressive opponents, competition for food, were created under reversed lighting conditions whereby observations were performed during the darkphase. Under these conditions, untreated rodents exihibit high levels of flight, particularly depressive ambivalence and escape behaviour, but low levels of social behaviour involving approach activity.
# [3] = test system: mice (stretched attend postures); settings: H. P. Kasermann, Psychopharmacology 1986, 89, 31-37; cited from earlier work
# [4] = test system: intruder mice (social behaviour); assay: Intruder test, Study A; format: in vivo, mouse; settings: 1 mg/kg p.o., 1 hour before the encounter
# Description: A foreign male mouse (intruder), placed for 6 minutes, into the cage of an isolated male is attacked and responds with defensive escape patterns collectively known as "flight". Flight and associated defensive activities over-ride the intruder's tendency to approach the attacker so that much of the behaviour includes social forms of ambivalence.
# Intruders receiving oral doses of benzodiazepines show less of these defensive activities and more approach-oriented behaviour (A. K. Dixon Triangle 1982, 21, 95-105; M. Krisak, Br. J. Pharmacol 1975, 55, 141-150), e.g. investigation, aggression and sexual activity.
# The compounds of the invention are administered 1 hour before the encounter per-orally at from about 0.1 to about 10 mg/kg. Groups of 8 mice pairs are used. The frequency and duration of social and non-social behaviour of the mice were recorded using ethological techniques.
# [5] = test system: mice (stretched attend postures); assay: Stretched Attend Postures (SAP) (No conflict); format: in vivo, mouse; settings: doses higher than 0.1 mg/kg
# Description: Mice placed upon an unfamiliar elevated platform in a novel environment display characteristic stretched body postures called SAP's which signify amibivalence.
# The compounds of the invention administered p.o. at a dose of from about 0.1 to about 10 mg/kg. 2 hours before the test reduce the duration of SAP when placed on the platform for 2 minutes under conditions where no other mice are present.
# [6] = test system: intruder mice (approach-oriented social activities); assay: Intruder test, Study B (large cage); format: in vivo, mouse; settings: for escape behaviour: single compounds: 1 microgram/kg, in general about 0.01 to about 100 microgram/kg i.p.
# Description: Study A was modified using a large cage (59×38.5×20 cm) which allowed greater freedom of movement so that elements of defense could be separated more clearly from the approach-oriented social activities. The compounds of the invention were given i.p. at doses from about 0.01 to about 100 microgram/kg 45 minutes before the encounter.
# Indruders received the drug. […] In this test at a dose of 1 microgram/kg compound E promoted 8 elements of approach oriented social activities by about 40 per cent. […] Compound H at the same dose promoted 3 elements of approach-oriented social activities by about 40 per cent.
# 5-HT3 receptors [7] = settings: rabbit heart; P. Donatsch et al., Br.j. Pharmacol. 1984, 81,348; cited from earlier work
# 5-HT3 receptors [8] = settings: rabbit vagus; P. Donatsch et al., Br.j. Pharmacol. 1984, 81,348; cited from earlier work
# 5-HT3 receptors [9] = settings: guinea pig ileum; P. Donatsch et al., Br.j. Pharmacol. 1984, 81,348; cited from earlier work
# plasma corticosterone = assay: Corticosterone levels (Endocrinological profile); format: in vivo, mouse; settings: reduction at high, increase of basal levels at low doses
# [10] = 26 week toxicity study in the dog; settings: in vivo, po, 26 weeks, read-out: no toxic effect bowel (dose), dog
# Description: (§1) Toxicity and Tolerability studies may be effected in conventional manner with the compounds of the invention to determine the upper dosage.
# (§2) Toxicity studies may be effected for example in the rat and the dog over for example 26 weeks.
# [11] = Bioavailability and pharmacokinetic profile after nasal / oral administration; format: in vivo, mammals including rhesus monkeys and humans; settings: plasma; ca. 5 to 10 minutes following nasal administration
# Description: The bioavailability and pharmacokinetic profile of the compounds of the invention may be determined in conventional manner, e.g. in mammals including rhesus monkeys and humans. The concentrations of the compounds of the invention in the blood plasma after administration of from about 0.01 to about 10 mg/kg to each nostril, e.g. 7.5 mg in the case of compound E, locally to the nasal mucous membrane, e.g. as a spray, may be determined in conventional manner by e.g. radioimmunoassay or HPLC methods. The compounds of the invention are rapidly absorbed, e.g. over about 10 minutes.
# healthy human volunteers = assay: Tolerability in healthy human volunteers; format: in vivo; settings: single doses
# Description: as §1
# [12] = 26 week toxicity study in the rat; settings: in vivo, po, 26 weeks, read-out: no toxic effect (dose), rat
# Description: as §1, §2
# [13] = Bioavailability of co-administered peptide (salmon calcitonin) on nasal administration; format: in vivo; settings: rhesus monkey
# Description: Additionally, the compounds of the invention when administered, e.g. at a dose of from 0.01 to 10 mg/kg with a therapeutically effective dosage of another compound, e.g. a peptide, such as salmon calcitonin increases the absorption thereof.
# [14] = 0.1 mg/kg p.o., 2 hours before the encounter
compound,measurement,setting,value
CC(NC(C)(C)C)C(=O)c1cccc(Cl)c1 (stereo not shown) [bupropion],increase in mean frequency of social interactions,"[1]; 2.5 mg/kg, competitive feeding experiment study c)",179 per cent
same,approach-oriented social behaviours,[2],increase approach-oriented social behaviours
same,effect on promoting social interaction under stress related conditions,[2],pronounced effect
O=C1CC2(CCCC2)CC(=O)N1CCCCN1CCN(c2ncccn2)CC1 [buspirone],incidence of SAP's,[3],reduce the incidence of SAP's
"CN1[C@@H]2CC[C@H]1C[C@@H](OC(=O)c1c[nH]c3ccccc13)C2 [compound E, Indol-3-yl carboxylic acid endo-8-methyl-8-aza-bicyclo-[3.2.1]oct-3-yl ester]",frequency of social inter-action,[4]; increased from ca 60,~80
same,duration of social inter-action,[4]; increased from ca 90,~120 s
same,increase in mean frequency of social interactions,"[1]; 0.01 mg/kg, competitive feeding experiment study c)",54 per cent
same,increase in duration of feeding,[1]; [14],55 per cent
same,increase in duration of social interactions relative to controls,[1]; [14],321 per cent
same,increase in frequency of feeding,[1]; [14],4 per cent
same,increase in frequency of social interactions relative to controls,[1]; [14],54%
same,effect on SAP at higher doses,[5],the effect was less
same,effect on promoting social interaction under stress related conditions,[2],pronounced effect
same,promotion of 8 elements of approach oriented social activities,"[6]; 1 microgram/kg i.p., 45 minutes before the encounter, 8 elements",about 40 per cent
same,escape behaviour,[6],reduced escape behaviour
same,antagonistic action against 5-HT3 receptors,5-HT3 receptors [7],antagonistic action
same,antagonistic action against 5-HT3 receptors,5-HT3 receptors [8],antagonistic action
same,antagonistic action against 5-HT3 receptors,5-HT3 receptors [9],antagonistic action
same,corticosterone profile compared with diazepam,plasma corticosterone,analogous to that observed with diazepam
same,NOAEL at 4368 h,[10],5 to 20 mg/kg/day
same,concentration at 10 min,[11],200 ng/mL
same,well tolerated single dose without relevant side effects,healthy human volunteers,up to 150 mg
same,NOAEL at 4368 h,[12],16 to 45 mg/kg/day
"Cc1nccn1CC1CCc2c(c3ccccc3n2C)C1=O (stereo not shown) [compound H, 1,2,3,9-tetrahydro-9-methyl-3-[(2-methyl-1H-imidazol-1-yl)methyl]-4H-carbazol-4-one]",promotion of 3 elements of approach-oriented social activities,"[6]; 1 microgram/kg i.p., 45 minutes before the encounter, 3 elements",about 40 per cent
same,cage exploratory behaviour,"[6]; 1 microgram/kg i.p., indicative of a stimulant effect",increase cage exploratory behaviour
same,escape behaviour,[6],effect on escape behaviour was less
CN1C(=O)CN=C(c2ccccc2)c2cc(Cl)ccc21 [diazepam],ambivalent behaviour,"[2]; reversed lighting, darkphase, stress-situations",reduce the ambivalent behaviour
same,social behaviour / approach-oriented behaviour in stress-situations,"[2]; reversed lighting, darkphase, stress-situations normally inhibitory to social responses",can increase social behaviour
CN(C)CCCN1c2ccccc2CCc2ccccc21 [impramine],approach-oriented social behaviours,[2],increase approach-oriented social behaviours
salmon calcitonin,"bioavailability of salmon calcitonin (AUC up to 2 hours), with compound E","[13]; salmon calcitonin 100 IU + compound E 15 mg, half to each nostril",1.632 m IU/ml/hr/plasma
same,"bioavailability of salmon calcitonin (AUC up to 2 hours), before increase by compound E","[13]; salmon calcitonin 100 IU nasal, without compound E",0.08 mIU/ml/hr
